According to ChEMBL document CHEMBL3044826, “Design, synthesis and biological evaluation of some novel substituted 2-mercapto-3-phenethylquinazolines as antitumor agents” (2013):

What was measured:
Type in all cases: functional
U-251 = experiment: Cytotoxicity against Homo sapiens (human) U251 cells assessed as growth inhibition at 10 uM after 48 hr by coulter counter analysis; settings: U-251, 48 h, read-out: GI
OVCAR-3 = experiment: Cytotoxicity against Homo sapiens (human) OVCAR3 cells assessed as growth inhibition at 10 uM after 48 hr by coulter counter analysis; settings: OVCAR-3, 48 h, read-out: GI
OVCAR-5 = experiment: Cytotoxicity against Homo sapiens (human) OVCAR5 cells assessed as growth inhibition at 10 uM after 48 hr by coulter counter analysis; settings: OVCAR-5, 48 h, read-out: GI
A498 = experiment: Cytotoxicity against Homo sapiens (human) A498 cells assessed as growth inhibition at 10 uM after 48 hr by coulter counter analysis; settings: A498, 48 h, read-out: GI
SF-539 = experiment: Cytotoxicity against Homo sapiens (human) SF539 cells assessed as growth inhibition at 10 uM after 48 hr by coulter counter analysis; settings: SF-539, 48 h, read-out: GI
LOX IMVI = experiment: Cytotoxicity against Homo sapiens (human) LOXIMVI cells assessed as growth inhibition at 10 uM after 48 hr by coulter counter analysis; settings: read-out: GI
HCC 2998 = experiment: Cytotoxicity against Homo sapiens (human) HCC2998 cells assessed as growth inhibition at 10 uM after 48 hr by coulter counter analysis; settings: HCC 2998, 48 h, read-out: GI
OVCAR-4 = experiment: Cytotoxicity against Homo sapiens (human) OVCAR4 cells assessed as growth inhibition at 10 uM after 48 hr by coulter counter analysis; settings: OVCAR-4, 48 h, read-out: GI
SN12C = experiment: Cytotoxicity against Homo sapiens (human) SN12C cells assessed as growth inhibition at 10 uM after 48 hr by coulter counter analysis; settings: read-out: GI
SNB-75 = experiment: Cytotoxicity against Homo sapiens (human) SNB75 cells assessed as growth inhibition at 10 uM after 48 hr by coulter counter analysis; settings: SNB-75, 48 h, read-out: GI
KM12 = experiment: Cytotoxicity against Homo sapiens (human) KM12 cells assessed as growth inhibition at 10 uM after 48 hr by coulter counter analysis; settings: KM12, 48 h, read-out: GI
M14 = experiment: Cytotoxicity against Homo sapiens (human) M14 cells assessed as growth inhibition at 10 uM after 48 hr by coulter counter analysis; settings: M14, 48 h, read-out: GI
[1] = Cytotoxicity against Homo sapiens (human) NCI-ADR-RES cells assessed as growth inhibition at 10 uM after 48 hr by coulter counter analysis; settings: read-out: GI
MCF7 = experiment: Cytotoxicity against Homo sapiens (human) MCF7 cells assessed as growth inhibition at 10 uM after 48 hr by coulter counter analysis; settings: MCF7, 48 h, read-out: GI
A549 = experiment: Cytotoxicity against Homo sapiens (human) A549 cells assessed as growth inhibition at 10 uM after 48 hr by coulter counter analysis; settings: A549, 48 h, read-out: GI
SF-268 = experiment: Cytotoxicity against Homo sapiens (human) SF268 cells assessed as growth inhibition at 10 uM after 48 hr by coulter counter analysis; settings: SF-268, 48 h, read-out: GI
COLO 205 = experiment: Cytotoxicity against Homo sapiens (human) COLO205 cells assessed as growth inhibition at 10 uM after 48 hr by coulter counter analysis; settings: COLO 205, 48 h, read-out: GI
ACHN = experiment: Cytotoxicity against Homo sapiens (human) ACHN cells assessed as growth inhibition at 10 uM after 48 hr by coulter counter analysis; settings: read-out: GI
HCT-15 = experiment: Cytotoxicity against Homo sapiens (human) HCT15 cells assessed as growth inhibition at 10 uM after 48 hr by coulter counter analysis; settings: HCT-15, 48 h, read-out: GI
SK-MEL-28 = experiment: Cytotoxicity against Homo sapiens (human) SK-MEL-28 cells assessed as growth inhibition at 10 uM after 48 hr by coulter counter analysis; settings: SK-MEL-28, 48 h, read-out: GI
EKVX = experiment: Cytotoxicity against Homo sapiens (human) EKVX cells assessed as growth inhibition at 10 uM after 48 hr by coulter counter analysis; settings: read-out: GI
SK-MEL-5 = experiment: Cytotoxicity against Homo sapiens (human) SK-MEL-5 cells assessed as growth inhibition at 10 uM after 48 hr by coulter counter analysis; settings: SK-MEL-5, 48 h, read-out: GI
NCI-H23 = experiment: Cytotoxicity against Homo sapiens (human) NCI-H23 cells assessed as growth inhibition at 10 uM after 48 hr by coulter counter analysis; settings: NCI-H23, 48 h, read-out: GI
MDA-MB-468 = experiment: Cytotoxicity against Homo sapiens (human) MDA-MB-468 cells assessed as growth inhibition at 10 uM after 48 hr by coulter counter analysis; settings: MDA-MB-468, 48 h, read-out: GI
CAKI-1 = experiment: Cytotoxicity against Homo sapiens (human) Caki1 cells assessed as growth inhibition at 10 uM after 48 hr by coulter counter analysis; settings: CAKI-1, 48 h, read-out: GI
DU-145 = experiment: Cytotoxicity against Homo sapiens (human) DU145 cells assessed as growth inhibition at 10 uM after 48 hr by coulter counter analysis; settings: DU-145, 48 h, read-out: GI
NCI-H322M = experiment: Cytotoxicity against Homo sapiens (human) NCI-H322M cells assessed as growth inhibition at 10 uM after 48 hr by coulter counter analysis; settings: read-out: GI
HT-29 = experiment: Cytotoxicity against Homo sapiens (human) HT-29 cells assessed as growth inhibition at 10 uM after 48 hr by coulter counter analysis; settings: HT-29, 48 h, read-out: GI
UO-31 = experiment: Cytotoxicity against Homo sapiens (human) UO31 cells assessed as growth inhibition at 10 uM after 48 hr by coulter counter analysis; settings: UO-31, 48 h, read-out: GI
PC-3 = experiment: Cytotoxicity against Homo sapiens (human) PC3 cells assessed as growth inhibition at 10 uM after 48 hr by coulter counter analysis; settings: PC-3, 48 h, read-out: GI
TK-10 = experiment: Cytotoxicity against Homo sapiens (human) TK10 cells assessed as growth inhibition at 10 uM after 48 hr by coulter counter analysis; settings: TK-10, 48 h, read-out: GI
OVCAR-8 = experiment: Cytotoxicity against Homo sapiens (human) OVCAR8 cells assessed as growth inhibition at 10 uM after 48 hr by coulter counter analysis; settings: OVCAR-8, 48 h, read-out: GI
RXF 393 = experiment: Cytotoxicity against Homo sapiens (human) RXF393 cells assessed as growth inhibition at 10 uM after 48 hr by coulter counter analysis; settings: RXF 393, 48 h, read-out: GI
UACC-62 = experiment: Cytotoxicity against Homo sapiens (human) UACC62 cells assessed as growth inhibition at 10 uM after 48 hr by coulter counter analysis; settings: UACC-62, 48 h, read-out: GI

SMILES	inhibition of growth at 10 µM (U-251) [%]	inhibition of growth at 10 µM (OVCAR-3) [%]	inhibition of growth at 10 µM (OVCAR-5) [%]	inhibition of growth at 10 µM (A498) [%]	inhibition of growth at 10 µM (SF-539) [%]	inhibition of growth at 10 µM (LOX IMVI) [%]	inhibition of growth at 10 µM (HCC 2998) [%]	inhibition of growth at 10 µM (OVCAR-4) [%]	inhibition of growth at 10 µM (SN12C) [%]	inhibition of growth at 10 µM (SNB-75) [%]	inhibition of growth at 10 µM (KM12) [%]	inhibition of growth at 10 µM (M14) [%]	inhibition of growth at 10 µM [1] [%]	inhibition of growth at 10 µM (MCF7) [%]	inhibition of growth at 10 µM (A549) [%]	inhibition of growth at 10 µM (SF-268) [%]	inhibition of growth at 10 µM (COLO 205) [%]	inhibition of growth at 10 µM (ACHN) [%]	inhibition of growth at 10 µM (HCT-15) [%]	inhibition of growth at 10 µM (SK-MEL-28) [%]	other results
O=c1c2ccccc2nc(SCCN2CCCCC2)n1CCc1ccccc1	14	< 10	12	17	< 10	19	< 10	14	< 10	13	< 10	< 10	13	37	13	< 10	25	< 10	20	< 10	inhibition of growth at 10 µM (EKVX): 30%; inhibition of growth at 10 µM (SK-MEL-5): 24%; inhibition of growth at 10 µM (NCI-H23): 23%; inhibition of growth at 10 µM (MDA-MB-468): < 10%; inhibition of growth at 10 µM (CAKI-1): 27%; inhibition of growth at 10 µM (DU-145): 11%; inhibition of growth at 10 µM (NCI-H322M): < 10%; inhibition of growth at 10 µM (HT-29): 70%; inhibition of growth at 10 µM (UO-31): 43%; inhibition of growth at 10 µM (PC-3): < 10%; inhibition of growth at 10 µM (TK-10): < 10%; inhibition of growth at 10 µM (OVCAR-8): < 10%; inhibition of growth at 10 µM (RXF 393): 19%; inhibition of growth at 10 µM (UACC-62): < 10%
O=c1c2ccccc2nc(SCc2ccc([N+](=O)[O-])cc2)n1CCc1ccccc1	< 10	< 10	< 10	< 10	< 10	< 10	< 10	< 10	< 10	< 10	< 10	< 10	12	< 10	16	< 10	< 10	< 10	< 10	< 10	inhibition of growth at 10 µM (EKVX): 19%; inhibition of growth at 10 µM (SK-MEL-5): < 10%; inhibition of growth at 10 µM (NCI-H23): 15%; inhibition of growth at 10 µM (MDA-MB-468): 3%; inhibition of growth at 10 µM (CAKI-1): 17%; inhibition of growth at 10 µM (DU-145): 24%; inhibition of growth at 10 µM (NCI-H322M): < 10%; inhibition of growth at 10 µM (HT-29): 15%; inhibition of growth at 10 µM (UO-31): < 10%; inhibition of growth at 10 µM (PC-3): < 10%; inhibition of growth at 10 µM (TK-10): < 10%; inhibition of growth at 10 µM (OVCAR-8): < 10%; inhibition of growth at 10 µM (RXF 393): < 10%; inhibition of growth at 10 µM (UACC-62): 22%
O=c1c2ccccc2nc(SCc2nnc(S)n2Cc2ccccc2)n1CCc1ccccc1	< 10	< 10	< 10	< 10	< 10	14	< 10	< 10	< 10	< 10	< 10	< 10	16	27	12	< 10	< 10	< 10	< 10	< 10	inhibition of growth at 10 µM (EKVX): 17%; inhibition of growth at 10 µM (SK-MEL-5): < 10%; inhibition of growth at 10 µM (NCI-H23): < 10%; inhibition of growth at 10 µM (MDA-MB-468): < 10%; inhibition of growth at 10 µM (CAKI-1): < 10%; inhibition of growth at 10 µM (DU-145): < 10%; inhibition of growth at 10 µM (NCI-H322M): < 10%; inhibition of growth at 10 µM (HT-29): < 10%; inhibition of growth at 10 µM (UO-31): < 10%; inhibition of growth at 10 µM (PC-3): 12%; inhibition of growth at 10 µM (TK-10): < 10%; inhibition of growth at 10 µM (OVCAR-8): < 10%; inhibition of growth at 10 µM (RXF 393): < 10%; inhibition of growth at 10 µM (UACC-62): 17%
